Measured values reported in patent US20250011878A1, “METHOD TO DETECT RNA BIOMARKERS” (ITALFARMACO SPA, priority 2021, published 2025).

What was measured:
[1] = system: PBMC; assay: Quantitative real-time PCR gene modulation in PBMC; assay type: cell-based, human; settings: PBMC treated with 1 μM ITF3756, 4 hours; qPCR vs vehicle-treated cells
Method: The gene expression has been determined by comparing the expression of the above genes in the treated cells versus vehicle-treated cells. PBMC were resuspended in RPMI 1640 medium (Dutch modified, ThermoFisher) at the density of 1×10^6 cells/ml. Cells were plated in 6-well plates (Corning), 3 ml per well. Cells were treated with […] at four concentrations: 0.25, 0.5, 1 and 2 μM. Each treatment concentration was replicated in 3 wells for experimental triplicate test. Vehicle (DMSO 0.05%) treated cells were plated at the same density and volumes. Plates were incubated for 4 hours at 37° C. 5% C02. At the end of treatment incubation cells were collected for total RNA extraction. After treatment with the test compound, PBMC were withdrawn from 6-well plates and collected in 15 ml tubes (Falcon). Wells were washed once with 1 ml of PBS pH 7.4 (ThermoFisher) and the wash volume was added to the collected cell suspensions. […] RNA concentration was determined using Nano Drop 1000 spectrophotometer. […] 3 μl of cDNA corresponding to 40 ng of template were added to PCR reaction reagent for a total volume of 15 μl as shown below: The level of mRNA expression modulation was evaluated comparing the mRNA level in treated versus not-treated samples; all data were normalized versus the average expression signal of three housekeeping genes (reference genes: UBC, B2M and HPRT1) in the corresponding samples. […]

[2] = system: PD-L1; assay: PD-L1 surface expression on human monocytes stimulated with TNF-α; assay type: cell-based
[3] = system: tumor microenvironment of CT26-bearing animals; assay: Ex-vivo RNAseq gene expression in tumor microenvironment of CT26-bearing mice, responders vs non responders; parameters: species or system BALB/c mice; settings: RNAseq total counts
Method: Adult BALB/c mice were injected s.c. with 1×10^6 CT26 tumor cells (diluted to 100 μl with phosphate buffered saline) and treated with anti-PD1 or ITF3756 when the tumor volume reached 75-100 mm^3, to explore the modulation of genes in the tumor microenvironment by RNAseq. Since ITF3756 acts on the PD-1/PD-L1 axis, this approach allows the identification of genes specific and common to both treatments. The overall schedule is described in Table 9.
RNA was extracted from flash frozen tumors using the Qiagen extraction kit and stored at −80° C. A paired-end sequencing was chosen, in which short reads are obtained from ends of DNA fragments for ultra-high-throughput sequencing. Prior to further analysis, a quality check was performed on the sequencing data. All samples contain sequences 75 nucleotides long (75 nt×2).
The RNA-Seq analysis pipeline involved several steps: • 1. Quality Control of the reads, • 2. Removal of low quality reads • 3. Reads spliced Alignment • 4. Transcriptome expression quantification analysis
The sample was mapped on reference Mus musculus genome (mm10) using the bioinformatics tool STAR (version 2.4.0d), with the standard parameters for paired reads. The reference track was the assembly mm10 obtained from Refseq. […] Average mapping ratio was above 93% and Ribosomal content was below 1% for all samples.
The quantification of transcripts expressed for each sequenced sample was performed using Cufflinks. The units of measurement used in Cufflinks is FPKM (Fragments Per Kilobase of transcript per Million mapped reads) and it is meant to be a measure of relative abundance of a transcript/gene in a RNA pool. It is not intended to be used directly for Differential Expression but it is meant to be human readable, and takes into account main technical confounding factors such as millions of reads and gene length.
Responders and non-responders were selected based on tumor volume at day 20. […]
Statistical significance was determined by unpaired t-test using GraphPad software (version 9), p-values […] were considered significant.

[4] = system: macrophages; assay: in vitro macrophage differentiation in the presence of ITF3756; assay type: cell-based

O=C(NO)c1ccc(Cn2nnnc2-c2cccs2)cc1 [ITF3756, N-hydroxy-4-((5-(thiophen-2-yl)-1 H-tetrazol-1-yl)methyl)benzamide]
IRF6 gene modulation [1]: upregulation | STAB1 gene modulation [1]: downmodulation | surface expression of PD-L1 (upregulation by TNF-α) [2]: inhibited | IRF6 expression in the tumor microenvironment, responders compared to non responders ([3]; p<0.1): striking expression upregulation | CD40 expression in the tumor microenvironment, responders compared to non-responder mice ([3]; unpaired t-test): statistically significant upregulation | MMP9 expression in the tumor microenvironment, responders compared to non responders ([3]; unpaired t-test): statistically significant reduction | M1 macrophages [4]: increase in M1 macrophages
